The results in this text go back to ChEMBL document CHEMBL1201862, “PubChem BioAssay data set” (2004).

Test systems include OVCAR-3; UACC-62; HOP-62; MOLT-4; Malme-3M; NCI-H226; RPMI-8226; HOP-92; SNB-19; SK-MEL-2; EKVX; DLD-1; U-251; TK-10; HCC 2998; HT-29.
Holding throughout (test): NCI anticancer screen, dose series, 48 h

Where “and” joins values, the source holds several entries; their conditions need not be identical. Equal entries are not always repeated.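 These data come from cells grown in 96-well plates and exposed to compound for 48 hours at five concentrations. GI50: concentration for 50% inhibition of growth.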 Calls of active or inactive are those of the source. Rule as the data show it: active = GI50 up to about 1.1 µM and inactive = higher. Some results are limits rather than exact numbers.

Consider `CC(=O)CC(=O)N(CCN(C(=O)CC(C)=O)c1ccccc1)c1ccccc1`, for which the GI50 in the experiment on OVCAR-3, in the experiment on UACC-62, in the experiment with HOP-62, in the experiment on MOLT-4, with Malme-3M and in the experiment with NCI-H226 was > 100 µM (inactive) throughout. Further, the GI50 was 72.9 µM (inactive) with RPMI-8226; > 100 µM (inactive) in the experiment with HOP-92; > 100 µM (inactive) in the experiment with SNB-19; > 100 µM (inactive) in the experiment on SK-MEL-2; > 100 µM (inactive) in the experiment on EKVX; > 100 µM (inactive) with DLD-1. In addition, the GI50 with U-251, with TK-10 and in the experiment on HCC 2998 was > 100 µM (inactive) each time.

For the compound `CCOc1ccccc1NC(=O)C1=C(C)NC(C)=C(C(=O)Nc2ccccc2OCC)C1c1cccc([N+](=O)[O-])c1`, the GI50 in the experiment with OVCAR-3 is 80.9 µM (inactive); with HOP-62, 39.3 µM (inactive); with MOLT-4, 11.8 µM (inactive); in the experiment on Malme-3M, 58.3 µM (inactive); with NCI-H226 it was 80.4 µM (inactive); in the experiment with RPMI-8226 it was 8.22 µM (inactive). Moreover, the GI50 with HOP-92 is 4.29 µM (inactive); in the experiment on SNB-19 it was > 100 µM (inactive); with SK-MEL-2, 39.3 µM (inactive); with EKVX, 30.1 µM (inactive); in the experiment with DLD-1, 46.8 µM (inactive); in the experiment with HT-29, 98.4 µM (inactive). Moreover, the GI50 was > 100 µM (inactive) in the experiment with U-251, > 100 µM (inactive) with TK-10 and 36.6 µM (inactive) in the experiment on HCC 2998.

In the case of `CC1(O)CC2C(CC1SC1CC3C(CC1(C)O)C3(C)C)C2(C)C` (stereo not given), the GI50 was 38.8 µM (inactive) in the experiment on OVCAR-3; 43.1 µM (inactive) in the experiment on MOLT-4; 29.6 µM (inactive) in the experiment on Malme-3M; 65.6 µM (inactive) with NCI-H226; 41.9 µM (inactive) with RPMI-8226; 36.2 µM (inactive) in the experiment on HOP-92. Further, the GI50 is 40.1 µM (inactive) with SK-MEL-2; 32.5 µM (inactive) in the experiment on EKVX; 74.8 µM (inactive) in the experiment on DLD-1; 39.6 µM (inactive) in the experiment with HT-29; 41.6 µM (inactive) with U-251; 69.7 µM (inactive) in the experiment on TK-10. For the same compound, in the experiment on HCC 2998, the GI50 is 33.6 µM (inactive).

`CC1CCCC(C(O)CC2CC(=O)N(c3ccccc3)C(=O)C2)C1=O` (stereo not given): the GI50 with OVCAR-3, in the experiment with UACC-62, in the experiment with HOP-62, with MOLT-4, in the experiment on Malme-3M and in the experiment with NCI-H226 was > 100 µM (inactive) each time. Also, the GI50 in the experiment with RPMI-8226, with HOP-92, in the experiment with SNB-19, with EKVX, with DLD-1 and in the experiment on HT-29 was > 100 µM (inactive) in each case. In addition, the GI50 with U-251, in the experiment on TK-10 and in the experiment on HCC 2998 was > 100 µM (inactive) each time.

Regarding `COc1c(O)c2c3c(c(C)cc(O)c3c1O)C(=O)C(O)(C(C)(C)C(C)=O)C2=O` (stereo not given), the GI50 is > 100 µM (inactive) with OVCAR-3; > 100 µM (inactive) in the experiment on HOP-62; > 100 µM (inactive) with MOLT-4; > 100 µM (inactive) in the experiment with Malme-3M; 19.3 µM (inactive) in the experiment with NCI-H226; > 100 µM (inactive) and 82.2 µM (inactive) with RPMI-8226. The GI50 with HOP-92, with SNB-19, with SK-MEL-2, in the experiment with DLD-1, in the experiment on HT-29 and in the experiment on U-251 was > 100 µM (inactive) throughout. Besides, the GI50 with TK-10 is > 100 µM (inactive).

As to `Clc1ccc(OCc2nnc3n2N=C(c2ccccc2)CS3)cc1`, the GI50 was 16.9 µM (inactive) in the experiment on OVCAR-3; 11.1 µM (inactive) in the experiment with UACC-62; 19.1 µM (inactive) in the experiment on HOP-62; 9.68 µM (inactive) in the experiment on MOLT-4; 17.9 µM (inactive) in the experiment with Malme-3M; 21.5 µM (inactive) in the experiment on NCI-H226. Also, the GI50 in the experiment on RPMI-8226 was 10.8 µM (inactive); with HOP-92 it was 20.9 µM (inactive); in the experiment on SNB-19 it was 18.7 µM (inactive); in the experiment on SK-MEL-2 it was 18 µM (inactive); with DLD-1, 16.5 µM (inactive); with HT-29, 16.3 µM (inactive). The GI50 in the experiment with U-251 is 17.9 µM (inactive); with TK-10, 27.3 µM (inactive); in the experiment with HCC 2998 it was 16.6 µM (inactive).

As to `O=C1C2C(C(=O)N1c1ccccc1)C1([N+](=O)[O-])C=C3c4ccccc4N(C(=O)c4ccccc4)C32C2C(=O)N(c3ccccc3)C(=O)C21` (stereo not given), the GI50 with OVCAR-3, in the experiment with UACC-62, in the experiment with HOP-62, with MOLT-4, in the experiment on Malme-3M and in the experiment on HOP-92 was > 100 µM (inactive) each time. Moreover, the GI50 with SNB-19, with SK-MEL-2, with DLD-1, with HT-29, in the experiment on U-251 and in the experiment with TK-10 was > 100 µM (inactive) in each case. For the same compound, the GI50 in the experiment on HCC 2998 is > 100 µM (inactive).

`CCN(c1n[n+]2c(-c3ccccc3)csc2s1)c1n[n+]2c(-c3ccccc3)csc2s1`: the GI50 with OVCAR-3 is 71.8 µM (inactive); in the experiment on UACC-62, > 100 µM (inactive); in the experiment on MOLT-4, 37.5 µM (inactive); in the experiment with Malme-3M it was 23.3 µM (inactive); in the experiment with NCI-H226, > 100 µM (inactive); in the experiment with RPMI-8226 it was 29.6 µM (inactive). For the same compound, the GI50 in the experiment with HOP-92 is > 100 µM (inactive); in the experiment with SNB-19 it was > 100 µM (inactive); in the experiment with SK-MEL-2 it was 44.1 µM (inactive); in the experiment on EKVX, > 100 µM (inactive); in the experiment on DLD-1 it was > 100 µM (inactive); in the experiment with HT-29, 66.1 µM (inactive). Besides, the GI50 in the experiment with U-251, in the experiment with TK-10 and with HCC 2998 was > 100 µM (inactive) in each case.

For the compound `Cc1c(C(=O)/C=C/c2ccccc2)[n+]([O-])c2ccccc2[n+]1[O-]`, the GI50 in the experiment with OVCAR-3 was 15.1 µM (inactive); with UACC-62, 15.1 µM (inactive); in the experiment on HOP-62 it was 18.1 µM (inactive); with MOLT-4, 21.3 µM (inactive); in the experiment with Malme-3M, 17.7 µM (inactive); in the experiment with NCI-H226, 20.8 µM (inactive). Also, the GI50 with RPMI-8226 was 17.8 µM (inactive); in the experiment with HOP-92, 11.6 µM (inactive); in the experiment with SNB-19, 15.7 µM (inactive); in the experiment with EKVX, 14.9 µM (inactive); with DLD-1 it was 14.2 µM (inactive); in the experiment with HT-29, 19.3 µM (inactive). Moreover, the GI50 in the experiment with U-251 was 15.3 µM (inactive); with TK-10, 26.2 µM (inactive); in the experiment with HCC 2998 it was 16.6 µM (inactive).

On to `CC1(Cl)CC(C)(/C=C/Cl)C(Cl)CC1Cl` (stereo not given), for which the GI50 is 14.5 µM (inactive) in the experiment on OVCAR-3; 16.1 µM (inactive) in the experiment on UACC-62; 19.9 µM (inactive) in the experiment on HOP-62; 14.3 µM (inactive) in the experiment on MOLT-4; 14.9 µM (inactive) in the experiment on Malme-3M; 0.615 µM (active) in the experiment with HOP-92. Further, the GI50 in the experiment with SNB-19 was 17.4 µM (inactive); with SK-MEL-2 it was 13.5 µM (inactive); in the experiment on EKVX, 12.1 µM (inactive); in the experiment on DLD-1, 16.7 µM (inactive); with HT-29, 11.6 µM (inactive); in the experiment with U-251, 16.9 µM (inactive). The GI50 in the experiment on TK-10 is 26.1 µM (inactive); in the experiment with HCC 2998 it was 17.1 µM (inactive).

For the compound `CC1=CCCC2C(C=O)(C1)CC(C)C2(CO)CC/C(=C/CO)CO` (stereo not given), the GI50 is > 100 µM (inactive) in the experiment with OVCAR-3; > 100 µM (inactive) in the experiment on UACC-62; 44.7 µM (inactive) in the experiment with MOLT-4; > 100 µM (inactive) in the experiment with Malme-3M; 38.5 µM (inactive) in the experiment with NCI-H226; 67.3 µM (inactive) with RPMI-8226. The GI50 is 30 µM (inactive) in the experiment with HOP-92; > 100 µM (inactive) in the experiment on EKVX; > 100 µM (inactive) in the experiment on DLD-1; > 100 µM (inactive) with HT-29; > 100 µM (inactive) in the experiment with U-251; > 100 µM (inactive) in the experiment with TK-10. Also, the GI50 with HCC 2998 was > 100 µM (inactive).

In the case of `COC(=O)C1=C(O)c2cc3c(cc2[C@H](c2cc(OC)c(OC)c(OC)c2)C1)OCO3`, the GI50 in the experiment on OVCAR-3 was 19 µM (inactive); in the experiment on UACC-62, 5.74 µM (inactive); with HOP-62, > 100 µM (inactive); with MOLT-4 it was 24.1 µM (inactive); with Malme-3M, 38.1 µM (inactive); with NCI-H226, 87.7 µM (inactive). For the same compound, the GI50 is 23 µM (inactive) in the experiment on RPMI-8226; 96.8 µM (inactive) with HOP-92; > 100 µM (inactive) in the experiment on SNB-19; 34.6 µM (inactive) in the experiment with DLD-1; 48.1 µM (inactive) in the experiment with HT-29; 44.5 µM (inactive) in the experiment with U-251. Besides, the GI50 in the experiment with TK-10 is 34.4 µM (inactive); with HCC 2998, 1.23 µM (inactive).

For `Cc1cccc(C)c1NC(=O)CCC(=O)/N=C(\N)NC#N`, the GI50 in the experiment on OVCAR-3, with UACC-62, in the experiment with HOP-62, with MOLT-4, in the experiment with Malme-3M and with NCI-H226 was > 100 µM (inactive) each time. The GI50 in the experiment on RPMI-8226, with HOP-92, with SNB-19, with EKVX, in the experiment on DLD-1 and in the experiment with HT-29 was > 100 µM (inactive) each time. For the same compound, the GI50 in the experiment on U-251, in the experiment with TK-10 and in the experiment on HCC 2998 was > 100 µM (inactive) throughout.
